Consider eight compounds from patent US10626144B2, “Peptide derivatives and uses thereof” (Nosopharm, priority 2014, dated 2020).

Square brackets hold non-standard residues; d marks the D form. Peptide text beside a SMILES is read from it. * marks the point of attachment. Phe(4-CF3) = N[C@@H](Cc1ccc(C(F)(F)F)cc1)C(=O)O; Phe(3-F) = N[C@@H](Cc1cccc(F)c1)C(=O)O; Dab(3S-OH) = NC[C@H](O)[C@H](N)C(=O)O; ΔZArg = N=C(N)NCC/C=C(\N)C(=O)O; Lys(Me) = CNCCCC[C@H](N)C(=O)O; dOrn = NCCC[C@@H](N)C(=O)O; Pip = O=C(O)[C@@H]1CCCCN1; Orn = NCCC[C@H](N)C(=O)O; Dab = NCC[C@H](N)C(=O)O; Dap = NC[C@H](N)C(=O)O; NH(CH2)4NH2 = NCCCCN*; NHOH = ON*

Test in all cases: MIC, broth microdilution (CLSI), reference strain
Holding throughout (settings): CAMHB

Experiment [1] has as its system Escherichia coli ATCC 25922.
Experiment [2] deals with Staphylococcus aureus ATCC 13709.
Experiment [3] has as its system Pseudomonas aeruginosa ATCC 27853.
Experiment [4] concerns Acinetobacter baumannii ATCC 19606.

Consider `CNCCCC[C@H](N)C(=O)N[C@H](C(=O)N[C@@H](C)C(=O)NCC(=O)N[C@H](CCCN)C(=O)N1CCC[C@H]1C(=O)N[C@@H](Cc1cnc[nH]1)C(=O)N[C@@H](CCCCN)C(=O)N/C(=C\CCNC(=N)N)C(=O)N[C@@H](CCCCN)C(=O)NCCCCN)[C@@H](O)CN` [24.43] (H-[Lys(Me)][Dab(3S-OH)]AG[dOrn]PHK[ΔZArg]K-{NH(CH2)4NH2}), for which the “Ec: MIC Escherichia coli ATCC 25922” value in experiment [1] is given as “++ (≤8 μg/mL)”. The “Sa: MIC Staphylococcus aureus ATCC 13709” value in experiment [2] is on record as “++ (≤8 μg/mL)”. Further, the “Pa: MIC Pseudomonas aeruginosa ATCC 27853” value in experiment [3] is listed as “+ (≤32 μg/mL)”. The “Ab: MIC Acinetobacter baumannii ATCC 19606” value in experiment [4] is “− (>32 μg/mL)”.
Turning to `C[C@H](NC(=O)[C@H](CCN)NC(=O)[C@@H](N)CCCCN)C(=O)NCC(=O)N[C@H](CCCN)C(=O)N1CCCC[C@H]1C(=O)N[C@@H](Cc1cnc[nH]1)C(=O)N[C@@H](CCCCN)C(=O)N/C(=C\CCNC(=N)N)C(=O)N[C@@H](CCCCN)C(=O)NCCCCN` [14.13] (H-K[Dab]AG[dOrn][Pip]HK[ΔZArg]K-{NH(CH2)4NH2}), the “Ec: MIC Escherichia coli ATCC 25922” value in experiment [1] is “+ (≤32 μg/mL)”. Besides, the “Sa: MIC Staphylococcus aureus ATCC 13709” value in experiment [2] is “++ (≤8 μg/mL)”. In addition, the “Pa: MIC Pseudomonas aeruginosa ATCC 27853” value in experiment [3] is given as “− (>32 μg/mL)”. Also, the “Ab: MIC Acinetobacter baumannii ATCC 19606” value in experiment [4] was “− (>32 μg/mL)”.
In the case of `C[C@H](NC(=O)[C@H](CCN)NC(=O)[C@@H](N)CCCCN)C(=O)NCC(=O)N[C@H](CCCN)C(=O)N1CCC[C@H]1C(=O)N[C@@H](Cc1cnc[nH]1)C(=O)N[C@@H](CCCCN)C(=O)N/C(=C\CCNC(=N)N)C(=O)N[C@@H](CCCCN)C(=O)NO` [14.14] (H-K[Dab]AG[dOrn]PHK[ΔZArg]K-{NHOH}), the “Ec: MIC Escherichia coli ATCC 25922” value in experiment [1] was “− (>32 μg/mL)”. In addition, the “Sa: MIC Staphylococcus aureus ATCC 13709” value in experiment [2] is on record as “++ (≤8 μg/mL)”. For the same compound, in experiment [3], the “Pa: MIC Pseudomonas aeruginosa ATCC 27853” value is reported as “− (>32 μg/mL)”. Besides, the “Ab: MIC Acinetobacter baumannii ATCC 19606” value in experiment [4] is recorded as “− (>32 μg/mL)”.
Regarding `N=C(N)NCC/C=C(\NC(=O)[C@H](CCCCN)NC(=O)[C@H](Cc1cccc(F)c1)NC(=O)[C@@H]1CCCN1C(=O)[C@@H](CCCN)NC(=O)CNC(=O)[C@H](CCCN)NC(=O)[C@@H](NC(=O)[C@@H](N)CCCCN)[C@@H](O)CN)C(=O)O` [211.4] (H-K[Dab(3S-OH)][Orn]G[dOrn]P[Phe(3-F)]K[ΔZArg]-OH), in experiment [1], the “Ec: MIC Escherichia coli ATCC 25922” value is “++ (≤8 μg/mL)”. The “Sa: MIC Staphylococcus aureus ATCC 13709” value in experiment [2] is reported as “++ (≤8 μg/mL)”. For the same compound, the “Pa: MIC Pseudomonas aeruginosa ATCC 27853” value in experiment [3] is “− (>32 μg/mL)”. For the same compound, the “Ab: MIC Acinetobacter baumannii ATCC 19606” value in experiment [4] is given as “− (>32 μg/mL)”.
For `N=C(N)NCC/C=C(\NC(=O)[C@H](CCCCN)NC(=O)[C@H](Cc1cccc(F)c1)NC(=O)[C@@H]1CCCN1C(=O)[C@@H](CCCN)NC(=O)CNC(=O)[C@H](CCN)NC(=O)[C@@H](NC(=O)[C@@H](N)CCCCN)[C@@H](O)CN)C(=O)O` [21.7] (H-K[Dab(3S-OH)][Dab]G[dOrn]P[Phe(3-F)]K[ΔZArg]-OH), the “Ec: MIC Escherichia coli ATCC 25922” value in experiment [1] is “++ (≤8 μg/mL)”. Further, in experiment [2], the “Sa: MIC Staphylococcus aureus ATCC 13709” value is on record as “++ (≤8 μg/mL)”. The “Pa: MIC Pseudomonas aeruginosa ATCC 27853” value in experiment [3] was “− (>32 μg/mL)”. Further, the “Ab: MIC Acinetobacter baumannii ATCC 19606” value in experiment [4] is recorded as “− (>32 μg/mL)”.
As to `COc1ccc(C[C@H](NC(=O)[C@@H]2CCCN2C(=O)[C@@H](CCCN)NC(=O)CNC(=O)[C@H](CCN)NC(=O)[C@@H](NC(=O)[C@@H](N)CCCCN)[C@@H](O)CN)C(=O)N[C@@H](CCCCN)C(=O)N/C(=C\CCNC(=N)N)C(=O)O)cc1` [21.10] (H-K[Dab(3S-OH)][Dab]G[dOrn]PY(Me)K[ΔZArg]-OH), in experiment [1], the “Ec: MIC Escherichia coli ATCC 25922” value was “++ (≤8 μg/mL)”. Also, in experiment [2], the “Sa: MIC Staphylococcus aureus ATCC 13709” value is reported as “++ (≤8 μg/mL)”. For the same compound, the “Pa: MIC Pseudomonas aeruginosa ATCC 27853” value in experiment [3] is listed as “− (>32 μg/mL)”. The “Ab: MIC Acinetobacter baumannii ATCC 19606” value in experiment [4] is “− (>32 μg/mL)”.
On to `N=C(N)NCC/C=C(\NC(=O)[C@H](CCCCN)NC(=O)[C@H](Cc1cnc[nH]1)NC(=O)[C@@H]1CCCN1C(=O)[C@@H](CCCN)NC(=O)CNC(=O)[C@H](CN)NC(=O)[C@@H](NC(=O)[C@@H](N)CCCCN)[C@@H](O)CN)C(=O)O` [221.1] (H-K[Dab(3S-OH)][Dap]G[dOrn]PHK[ΔZArg]-OH), for which, in experiment [1], the “Ec: MIC Escherichia coli ATCC 25922” value was “− (>32 μg/mL)”. Also, the “Sa: MIC Staphylococcus aureus ATCC 13709” value in experiment [2] was “+ (≤32 μg/mL)”. Also, in experiment [3], the “Pa: MIC Pseudomonas aeruginosa ATCC 27853” value is listed as “− (>32 μg/mL)”. In experiment [4], the “Ab: MIC Acinetobacter baumannii ATCC 19606” value is reported as “− (>32 μg/mL)”.
With `C[C@H](NC(=O)[C@@H](NC(=O)[C@@H](N)CCCCN)[C@@H](O)CN)C(=O)NCC(=O)N[C@H](CCCN)C(=O)N1CCC[C@H]1C(=O)N[C@@H](Cc1ccc(C(F)(F)F)cc1)C(=O)N[C@@H](CCCCN)C(=O)N/C(=C\CCNC(=N)N)C(=O)O` [24.94] (H-K[Dab(3S-OH)]AG[dOrn]P[Phe(4-CF3)]K[ΔZArg]-OH), the “Ec: MIC Escherichia coli ATCC 25922” value in experiment [1] is “++ (≤8 μg/mL)”. Besides, the “Sa: MIC Staphylococcus aureus ATCC 13709” value in experiment [2] is “++ (≤8 μg/mL)”. For the same compound, the “Pa: MIC Pseudomonas aeruginosa ATCC 27853” value in experiment [3] was “− (>32 μg/mL)”. In addition, the “Ab: MIC Acinetobacter baumannii ATCC 19606” value in experiment [4] is recorded as “− (>32 μg/mL)”.
